According to patent US20090192192A1, “INHIBITORS OF BIOFILM FORMATION OF GRAM-POSITIVE AND GRAM-NEGATIVE BACTERIA” (priority 2007, published 2009):

Test system: Pseudomonas aeruginosa PAO1
Experiment: MBEC assay, biofilm formation of P. aeruginosa PAO1
Assay type: cell-based
Conditions: compound concentration 100 μM, class symbols
Procedure: The compound to be tested was dissolved in DMSO to obtain a concentration that was 100 times that of the final concentration required (1 mM for the 10 μM assay and 10 mM for the 100 μM assay). 1.5 μL of the above solution was placed into each well of a 96 well plate (final volume in each well=150 μL, final DMSO concentration of 1% (v/v)).
To grow the organism and form a biofilm, a cryogenic stock of the test organism (at −70° C.) was used. A first sub-culture was streaked out onto TSA (tryptic soy agar), upon which the plate was incubated at 35±2° C. for 24 hours and stored wrapped in parafilm at 4° C. afterwards. From this first sub-culture, a second sub-culture was streaked out onto TSA. The plate was incubated at 35±2° C. for 24 hours. The second sub-culture was used within 24 hours starting from the time it was first removed from incubation. Using the second sub-culture an inoculum in 3 mL sterile water that matches a 0.5 McFarland Standard (1.5×10^8 cells per mL) was created in a glass test tube using a sterile cotton swab. 2.2 mL of this solution was diluted in 22 mL 100% TSB (tryptic soy broth) medium to a cell density of approximately […]. The diluted organism was inverted 3-5 times to achieve uniform mixing of the organism. One sample (100 μl) of the diluted organism was used for an inoculum check by serially diluting and spot plating on TSA.
To prepare a challenge plate, […] of the diluted organism was added to each well of a 96 well plate except the sterility control wells. The test compounds were added to the wells to make up final concentrations of 10 μM and […] (1.5 μL/well) in the designated location in the test plate. 128.5 μL of 100% universal neutralizer (1% Tween 80 in Cation Adjusted Mueller Hinton Broth, CAMHB) was placed in each of the wells. 130 μL of media was added to the growth control wells. 128.5 μL of media+1.5 μL of DMSO were added to a second set of growth control wells. 150 μL of media was added to the sterility controls. Each sample was run in triplicate. The plate was covered by a lid with a peg per well and wrapped in parafilm and placed on a shaker in a humidified incubator (GeneVac) at 35±+2° C. for 24 hours set at 110 rpm.
Rinse plate(s) of 0.9% saline (200 μL per well) were prepared in a sterile 96 well microtitre plate. Lid-associated pegs were rinsed in 0.9% saline for approximately 1-2 minutes. The peg lid was transferred to the recovery media (1.0% Tween 80 in CAMHB) then sonicated for 30 minutes to dislodge surviving biofilm. Following sonication, 100 μL from each well of the 96 well plate was placed into the first 12 wells of the first row of a 96 well microtiter plate. 180 μl of 0.9% sterile saline was placed in the remaining rows. A serial dilution (10^0-10^7) was prepared by moving 20 μl down each of the 8 rows. 20 μl from each well was removed and spot plated on a prepared TSA. In the remaining recovery plate, 100 μl of fresh growth media (1.0% Tween 80 in CAMHB) was placed in each well to replace the amount removed. The recovery plate was covered with a regular lid and incubated at 35±2° C. for 24 hours and read visually to confirm antimicrobial activity of the test compounds.
The compounds of the present disclosure have been tested regarding their efficiency to inhibit biofilm formation of Staphylococcus aureus U of C#18 (MRSA), Staphylococcus aureus 456 (MRSA), Staphylococcus epidermidis RP62A, and Pseudomonas aeruginosa PAO1.

Question: `CCCCCCCCCOCC(=O)Nc1cc(-c2ccccc2)nn1C` [Example 108, N-(1-methyl-3-phenylpyrazol-5-yl)-2-(nonyloxy)acetamide] was tested. Which inhibition at 100 µM did it give?
Answer: > 50%

Question: `CCCCCCCCCOCC(=O)Nc1cc(C(C)(C)C)on1` [Example 109, N-(5-tert-butylisoxazol-3-yl)-2-(nonyloxy)acetamide] was tested. Which inhibition at 100 µM did it give?
Answer: 20 to 50%

Question: `CCCCCCCCCOCC(=O)Nc1nnc(-c2ccccc2)s1` [Example 110, 2-(nonyloxy)-N-(5-phenyl-1,3,4-thiadiazol-2-yl)acetamide] was tested. Which inhibition at 100 µM did it give?
Answer: < 20%

Question: With `CCCCCCCCCOCC(=O)N[C@H]1CCOC1=O` [Example 111, N-(2-nonyloxyacetyl)-L-homoserinelactone] as the molecule, how does the inhibition at 100 µM read?
Answer: < 20%

Question: With `CCCCCCCCOCCC(=O)N[C@H]1CCOC1=O` [Example 112, N-(3-octyloxypropanoyl)-L-homoserinelactone] as the molecule, how does the inhibition at 100 µM read?
Answer: < 20%

Question: With `CCCCCCCCOCCC(=O)N[C@@H](C)c1ccccc1` [Example 113, (S)-3-(octyloxy)-N-(1-phenylethyl)propanamide] as the molecule, how does the inhibition at 100 µM read?
Answer: > 50%

Question: Which inhibition at 100 µM does the source give for `CCCCCCCCOCCC(=O)Nc1cc(C)nn1C` [Example 114, N-(1,3-dimethylpyrazol-5-yl)-3-(octyloxy)propanamide] here?
Answer: 20 to 50%

Question: For `CCCCCCCCOCCC(=O)Nc1cc(C2CC2)nn1C` [Example 115, N-(3-cyclopropyl-1-methylpyrazol-5-yl)-3-(octyloxy)propanamide], which inhibition at 100 µM is on record?
Answer: > 50%

Question: Which inhibition at 100 µM does the source give for `CCCCCCCCOCCC(=O)Nc1cc(C(C)(C)C)nn1C` [Example 116, N-(3-tert-butyl-1-methylpyrazol-5-yl)-3-(octyloxy)propanamide] here?
Answer: > 50%

Question: For `CCCCCCCCOCCC(=O)Nc1cc(-c2ccccc2)nn1C` [Example 117, N-(1-methyl-3-phenylpyrazol-5-yl)-3-(octyloxy)propanamide], which inhibition at 100 µM is on record?
Answer: > 50%

Question: How did the inhibition at 100 µM turn out when `CCCCCCCCOCCC(=O)Nc1nnc(-c2ccccc2)s1` [Example 118, 3-(octyloxy)-N-(5-phenyl-1,3,4-thiadiazol-2-yl)propanamide] was run?
Answer: < 20%

Question: For `CCCCOCCOCC(=O)N(C)c1ccc(F)cc1` [Example 119, 2-(2-butoxyethoxy)-N-(4-fluorophenyl)-N-methylacetamide], which inhibition at 100 µM is on record?
Answer: < 20%

Question: With `CCCCOCCOCC(=O)Nc1ccc(F)cc1C(F)(F)F` [Example 120, 2-(2-butoxyethoxy)-N-(4-fluoro-2-(trifluoromethyl)phenyl)acetamide] as the molecule, how does the inhibition at 100 µM read?
Answer: 20 to 50%

Question: Which inhibition at 100 µM does the source give for `CCCCOCCOCC(=O)N[C@@H](C)c1ccccc1` [Example 121, (S)-2-(2-butoxyethoxy)-N-(1-phenylethyl)acetamide] here?
Answer: < 20%

Question: `CCCCOCCOCC(=O)Nc1cc(C)nn1C` [Example 122, 2-(2-butoxyethoxy)-N-(1,3-dimethylpyrazol-5-yl)acetamide] was tested. Which inhibition at 100 µM did it give?
Answer: < 20%

Question: With `CCCCOCCOCC(=O)Nc1cc(C)ns1` [Example 123, 2-(2-butoxyethoxy)-N-(3-methylisothiazol-5-yl)acetamide] as the molecule, how does the inhibition at 100 µM read?
Answer: < 20%

Question: How did the inhibition at 100 µM turn out when `CCCCOCCOCC(=O)Nc1cc(-c2ccccc2)nn1C` [Example 124, 2-(2-butoxyethoxy)-N-(1-methyl-3-phenylpyrazol-5-yl)acetamide] was run?
Answer: 20 to 50%

Question: For `COCCOCCOCC(=O)N(C)c1ccc(F)cc1` [Example 125, N-(4-fluorophenyl)-2-(2-(2-methoxyethoxy)ethoxy)-N-methylacetamide], which inhibition at 100 µM is on record?
Answer: < 20%

Question: Which inhibition at 100 µM does the source give for `COCCOCCOCC(=O)Nc1ccc(F)cc1C(F)(F)F` [Example 126, N-(4-fluoro-2-(trifluoromethyl)phenyl)-2-(2-(2-methoxyethoxy)ethoxy)acetamide] here?
Answer: < 20%

Question: `COCCOCCOCC(=O)N[C@@H](C)c1ccccc1` [Example 127, (S)-2-(2-(2-methoxyethoxy)ethoxy)-N-(1-phenylethyl)acetamide] was tested. Which inhibition at 100 µM did it give?
Answer: < 20%

Question: Which inhibition at 100 µM does the source give for `COCCOCCOCC(=O)Nc1cc(C)nn1C` [Example 128, N-(1,3-dimethylpyrazol-5-yl)-2-(2-(2-methoxyethoxy)ethoxy)acetamide] here?
Answer: < 20%

Question: Which inhibition at 100 µM does the source give for `COCCOCCOCC(=O)Nc1cc(C)ns1` [Example 129, 2-(2-(2-methoxyethoxy)ethoxy)-N-(3-methylisothiazol-5-yl)acetamide] here?
Answer: < 20%

Question: For `CCCCCCCCCCCC(=O)N1CCCC(C(N)=O)C1` (centres unmarked) [Example 130, 1-dodecanoylpiperidine-3-carboxamide], which inhibition at 100 µM is on record?
Answer: > 50%

Question: With `CCCCCCCCCCCC(=O)N1CCC(C(N)=O)CC1` [Example 131, 1-dodecanoylpiperidine-4-carboxamide] as the molecule, how does the inhibition at 100 µM read?
Answer: 20 to 50%

Question: How did the inhibition at 100 µM turn out when `CCCCCCCCCCCC(=O)N1CCCC(C(=O)NC)C1` (centres unmarked) [Example 132, 1-dodecanoyl-N-methylpiperidine-3-carboxamide] was run?
Answer: > 50%

Question: `CCCCCCCCCCCC(=O)N1CCCC(C(=O)NCC)C1` (centres unmarked) [Example 133, 1-dodecanoyl-N-ethylpiperidine-3-carboxamide] was tested. Which inhibition at 100 µM did it give?
Answer: > 50%

Question: For `CCCCCCCCCCCC(=O)N1CCCC(C(=O)NCC(C)C)C1` (centres unmarked) [Example 134, 1-dodecanoyl-N-isobutylpiperidine-3-carboxamide], which inhibition at 100 µM is on record?
Answer: 20 to 50%

Question: Which inhibition at 100 µM does the source give for `CCCCCCCCCC(=O)N1CCCC(C(=O)N(CC)CC)C1` (centres unmarked) [Example 135, 1-decanoyl-N,N-diethylpiperidine-3-carboxamide] here?
Answer: > 50%

Question: How did the inhibition at 100 µM turn out when `CCCCCCCCCCCC(=O)N1CCCC(C(=O)N2CCCC2)C1` (centres unmarked) [Example 136, 1-(3-(pyrrolidine-1-carbonyl)piperidin-1-yl)dodecan-1-one] was run?
Answer: < 20%

Question: Which inhibition at 100 µM does the source give for `CCCCCCCCOCCC(=O)N1CCCC(C(=O)N(CC)CC)C1` (centres unmarked) [Example 137, N,N-diethyl-1-(3-(octyloxy)propanoyl)piperidine-3-carboxamide] here?
Answer: 20 to 50%

Question: With `CCCCCCCN(C)CCCC(=O)N1CCCC(C(=O)N(CC)CC)C1` (centres unmarked) [Example 138, N,N-diethyl-1-(4-(heptyl(methyl)amino)butanoyl)piperidine-3-carboxamide] as the molecule, how does the inhibition at 100 µM read?
Answer: < 20%

Question: With `CCN(CC)C(=O)C1CCCN(C(=O)CCCCCCN(C)CCN(C)C)C1` (centres unmarked) [Example 139, 1-(7-((2-(dimethylamino)ethyl)(methyl)amino)heptanoyl)-N,N-diethylpiperidine-3-carboxamide] as the molecule, how does the inhibition at 100 µM read?
Answer: < 20%

Question: With `CCN(CC)C(=O)C1CCCN(C(=O)CCCCCCN2CCN(C)CC2)C1` (centres unmarked) [Example 140, N,N-diethyl-1-(7-(4-methylpiperazin-1-yl)heptanoyl)piperidine-3-carboxamide] as the molecule, how does the inhibition at 100 µM read?
Answer: < 20%

Question: For `CCN(CC)C(=O)C1CCCN(C(=O)CCCCCCCCCCCSC)C1` (centres unmarked) [Example 141, N,N-diethyl-1-(12-(methylthio)dodecanoyl)piperidine-3-carboxamide], which inhibition at 100 µM is on record?
Answer: > 50%

Question: How did the inhibition at 100 µM turn out when `CCN(CC)C(=O)C1CCCN(C(=O)CCCCCCCCCCCS(C)(=O)=O)C1` (centres unmarked) [Example 142, N,N-diethyl-1-(12-(methylsulfonyl)dodecanoyl)piperidine-3-carboxamide] was run?
Answer: 20 to 50%

Question: For `CCN(CC)C(=O)C1CCCN(C(=O)CCCCCCCCCNS(C)(=O)=O)C1` (centres unmarked) [Example 143, N,N-diethyl-1-(10-(methylsulfonamido)decanoyl)piperidine-3-carboxamide], which inhibition at 100 µM is on record?
Answer: 20 to 50%

Question: `CCCCCCCCNC(=O)CC(=O)N1CCCC(C(=O)N(CC)CC)C1` (centres unmarked) [Example 144, N,N-diethyl-1-(3-(octylamino)-3-oxopropanoyl)piperidine-3-carboxamide] was tested. Which inhibition at 100 µM did it give?
Answer: 20 to 50%

Question: For `CCCCCCCCCCCC(=O)N1CCC(C(N)=O)C1` (centres unmarked) [Example 145, 1-dodecanoylpyrrolidine-3-carboxamide], which inhibition at 100 µM is on record?
Answer: > 50%

Question: `CCCCCCCCCCCC(=O)N1CCC(C(=O)NC)C1` (centres unmarked) [Example 146, 1-dodecanoyl-N-methylpyrrolidine-3-carboxamide] was tested. Which inhibition at 100 µM did it give?
Answer: > 50%

Question: With `CCCCCCCCCCCC(=O)N1CCC(C(=O)N(C)C)C1` (centres unmarked) [Example 147, 1-dodecanoyl-N,N-dimethylpyrrolidine-3-carboxamide] as the molecule, how does the inhibition at 100 µM read?
Answer: > 50%

Question: How did the inhibition at 100 µM turn out when `CCCCCCCCCCCC(=O)N1CCC(C(=O)N(CC)CC)C1` (centres unmarked) [Example 148, 1-dodecanoyl-N,N-diethylpyrrolidine-3-carboxamide] was run?
Answer: > 50%
